From patent publication US20080125432A1 (Devgen NV, priority 2004, published 2008)
Like-named read-outs stand apart in the source and are kept apart here.

Legend:
[1] = biological target: T1, human Kv4.3/KChIP2.2 potassium channel (Homo sapiens, UniProt Q9UK17); assay: Whole cell patch clamp, CHO-K1 cells stably expressing human Kv4.3/KChIP2.2; type: cell-based; conditions: Kv4.3 mediated current, charge; patch clamp; read-out: Kv4.3 charge IC50
T1 construct: expressed in transfected cells
T1 sequence (Q9UK17 1-655): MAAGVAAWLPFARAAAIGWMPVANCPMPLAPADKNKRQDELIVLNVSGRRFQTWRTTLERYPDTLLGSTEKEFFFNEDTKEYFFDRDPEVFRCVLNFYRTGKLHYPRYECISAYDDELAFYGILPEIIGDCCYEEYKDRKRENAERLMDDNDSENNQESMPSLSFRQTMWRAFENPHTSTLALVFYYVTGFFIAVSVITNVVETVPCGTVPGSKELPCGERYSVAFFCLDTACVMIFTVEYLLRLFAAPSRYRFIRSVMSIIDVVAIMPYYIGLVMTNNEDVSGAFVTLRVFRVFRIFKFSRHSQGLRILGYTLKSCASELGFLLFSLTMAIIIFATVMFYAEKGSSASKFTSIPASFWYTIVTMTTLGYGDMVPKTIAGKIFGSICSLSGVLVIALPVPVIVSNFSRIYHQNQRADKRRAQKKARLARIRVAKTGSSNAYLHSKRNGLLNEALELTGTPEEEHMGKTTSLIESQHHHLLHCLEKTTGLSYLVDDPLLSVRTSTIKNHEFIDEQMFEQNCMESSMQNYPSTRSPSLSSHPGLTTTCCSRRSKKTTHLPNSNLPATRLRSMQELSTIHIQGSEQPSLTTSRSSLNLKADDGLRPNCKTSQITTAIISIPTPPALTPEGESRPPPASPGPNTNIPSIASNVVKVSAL

human Kv4.3 [2] = biological target: T2, human Kv4.3 (Homo sapiens, UniProt Q9UK17); assay: C. elegans based high-throughput screen for Kv4.3 modulators (pharynx pumping, Calcein AM uptake), transgenic strain UG1755; type: in vivo; conditions: for Ratio N2/Kv4.3: EC50 on N2 divided by EC50 on the Kv4.3 expressing strain, cut-off 1.8; for EC50: transgenic strain UG1755 expressing human Kv4.3, read-out: EC50 (μM) Kv4.3 worm
T2 construct: expressed in transfected cells; host or cells: transgenic C. elegans strain UG1755 (N2 injected with plasmid pGV8, integrated array)
T2 sequence (Q9UK17 1-655): T1 sequence (Q9UK17 1-655)
Excerpt: A C. elegans based high-throughput screen for Kv4.3 modulators has been used to establish an in vivo SAR (structure-activity relationships: the effect of chemical structure on biological activity) on Kv4.3 for the compounds according to the present invention.
This assay has employed a stable transgenic C. elegans strain that functionally expressed human Kv4.3 in the pharynx and a visible selection GFP maker in body-wall muscle.
The pharynx is the feeding organ of C. elegans and contracts rhythmically 3-4 times per second. The pharynx contraction is controlled by the nervous system via action potentials similar to the human myocyte and can thus be used to study human ion channel physiology in vivo in C. elegans.
Introducing the human Kv4.3 channel into the C. elegans pharynx influences the C. elegans action potential in a characteristic fashion. The additional number of potassium channels increases potassium ion efflux, enhances re-polarization and thereby shortens the action potential duration. […] The shortened action potentials of the C. elegans pharynx resulting from expression of human Kv4.3, changes the pharynx contraction-relaxation cycle and consequently reduces the pumping/feeding in these transgenic animals. This change of pumping is an end-point amenable to high-throughput screening technology. The pumping end-point can be technically translated into a high-throughput read-out by the use of a pro-fluorescent dye. The pro-fluorescent dye is taken up by C. elegans depending on its pumping activity and converted into a fluorescent dye by enzymes located in its intestines. After a defined incubation period, the change of fluorescence intensity in the intestine can be measured with a plate reader.
(§1) The screening of the compounds according to the present invention has been performed in the C. elegans based high-throughput screen for Kv4.3 modulators described above. The method for testing the activity on human Kv4.3 of the compounds according to the invention with C. elegans strains expressing human Kv4.3 for their activity is the same as the method described in WO 03/097682. The method for testing the compounds on wild-type C. elegans strains not expressing human Kv4.3 is the same as the method described in WO 00/63427. Briefly, UG1755 animals have been grown in large numbers and staged young adults (no or only few eggs inside the uterus) have been harvested on the day of screening. Approximately 125 animals in 80 μl buffer have been dispensed per well of a “U shaped 96-well compound plate The compound plate contained already compound material at a final concentration of 30 μM in 0.3% DMSO. After one hour incubation 10 μl of the fluorescent label Calcein AM (CAM) have been added to achieve a final concentration of 5 μM CAM and 0.8% DMSO. After another four hours of incubation at 20° C., the drinking of C. elegans animals (or the “reaction 8 measured by the uptake of CAM) has been stopped by adding 10 μl of a 60 μM ivermectin solution. The fluorescence intensity (counts per second) has been measured 40 minutes after adding ivermectin with the Wallac plate reader at a wavelength of 535 nm (after excitation at 485 nm).
The active compounds have been identified and confirmed by dose-response analysis. An EC50 has been calculated and the results are listed under Table 3. Dose-response curves have been obtained at concentrations of 30 μM. EC50 has been calculated using XLfit 2.09 software package.

[3] = system: C. elegans wild-type strain N2; assay: Same C. elegans pumping assay format using wild-type strain N2; type: in vivo; conditions: read-out: EC50 (μM) Wild type worm N2
Excerpt: as §1
These compounds have been also tested in the same assay format using a C. elegans wild-type strain N2 and the corresponding EC50 has been calculated. The ratio of the EC50s obtained for a compound on the two strains (transgenic expressing human Kv4.3 and wild-type) gives an indication on whether said compound is acting on human Kv4.3. […]

human Kv4.3 [4] = biological target: T2, human Kv4.3; assay: Electropharyngeogram (EPG) recording on dissected pharynxes of transgenic C. elegans strain UG1755
Experimental: The method to describe the construction of a transgenic C. elegans strain expressing human Kv4.3 has been described in WO 03/097682. Briefly, the actual used strain UG1755 has been generated by microinjection into the gonad of a wild-type strain N2 with a mix of 5 ng/μl plasmid pGV8 (human Kv4.3), 20 ng/μl pDW2821 (GFP-marker) and 40 ng/ul genomic C. elegans DNA. Transgenic animals have been isolated and submitted to integration of the extra-chromosomal array into the genome of C. elegans. A line with 50% transmission of the functional expressed human Kv4.3 has been mutagenized with gamma irradiation using a Cobalt source. About 12000 F2 animals have been singled out and their progeny has been screened for the 100% transmission of the GFP marker. Lines with 100% transmission of GFP have been considered as potentially integrated. These lines have been further tested and out-crossed with N2 strain two-times. All lines obtained have been tested for viability, GFP and human Kv4.3 expression. At the end of a selection process, UG1755 was identified as most suitable C. elegans strain amenable to high throughput screening (HTS). […] Briefly, dissected pharynxes of UG1755 C. elegans animals have been prepared and Electropharyngeograms (EPGs) have been recorded using an Axopatch-1D amplifier (Axon instruments). […] The number of ultra short EPGs (10-20 ms) and normal EPGs (100-200 ms) has been analyzed and given as ratio in percentage. […] In addition, standard qRT-PCR confirmed the presence of the human Kv4.3 transgene in UG1755 as well as human Kv4.3 protein has been detected with the human Kv4.3 antibody P 0358 in the pharynx of UG1755 animals.
Introducing the human Kv4.3 channel into the C. elegans pharynx influences the C. elegans action potential in a characteristic fashion. […] The pumping end-point can be technically translated into a high-throughput read-out by the use of a pro-fluorescent dye. […] After a defined incubation period, the change of fluorescence intensity in the intestine can be measured with a plate reader.

Compound | IC50 [1] | Ratio N2/Kv4.3 (human Kv4.3 [2]) | EC50 (human Kv4.3 [2]) | EC50 ([3]; Caenorhabditis elegans) | ultra short action potentials of the human Kv4.3 transgenic C. elegans pharynx (human Kv4.3 [4]) | After Application of Compound Ratio Ultra short to Normal EPGs in % (human Kv4.3 [4]; 100 μM Flecainide, strain UG1755, n = 15, before application 83 ± 13) | EC50 [3]
O=C(N[C@@H]1CCC[C@H]1OCc1ccccc1)c1csc(Nc2ccccc2)n1 [Compound 48, 2-phenylaminothiazole-4-carboxylic acid (1R,2R)-2-(benzyloxycyclopent-1-yl) amide] | 2.47 µM | 14.9 | 2 µM | 29.8 µM | – | – | –
Cc1nc(Nc2ccc(Br)cc2)sc1C(=O)NCc1ccccc1 [Compound 20, 2-(4-bromo-phenylamino)-4-methyl-thiazole-5-carboxylic acid benzylamide] | 1.72 µM | >2.3 | 25 µM | > 60 µM | – | – | –
Nc1ccncc1 [4-aminopyridine] | – | – | – | – | restored to normal action potentials | – | –
O=C(NCC1CCCCN1)c1cc(OCC(F)(F)F)ccc1OCC(F)(F)F (centres unmarked) [Flecainide] | – | – | – | – | restored to normal action potentials | 53 ± 24% | –
2-(4-bromo-phenylamino)-4-methyl-thiazole-5-carboxylic acid (1R,2R)-2-(benzyloxycyclopent-1-yl) amide [Compound 25] | 1.32 µM | >25 | 10.3 µM | – | – | – | > 30 µM
Cc1nc(Nc2ccc(Br)cc2)sc1C(=O)NCc1ccc([N+](=O)[O-])cc1 [Compound 23, 2-(4-bromo-phenylamino)-4-methyl-thiazole-5-carboxylic acid 4-nitro-benzylamide] | 0.55 µM | 2.8 | 14.6 µM | 41 µM | – | – | –
O=C(N[C@@H]1CCC[C@H]1OCc1ccccc1)c1csc(Nc2ccc(Cl)cc2)n1 [Compound 40, 2-(4-chloro-phenylamino)-thiazole-4-carboxylic acid (1R,2R)-2-(benzyloxycyclopent-1-yl) amide] | 3.46 µM | >2.5 | 12.1 µM | – | – | – | > 30 µM
Cc1nc(Nc2ccc(Br)cc2)sc1C(=O)NCc1cc(C(F)(F)F)cc(C(F)(F)F)c1 [Compound 24, 2-(4-bromo-phenylamino)-4-methyl-thiazole-5-carboxylic acid 3,5-bis-trifluoromethyl-benzylamide] | – | >1.7 | 17.1 µM | > 30 µM | – | – | –
CCCN(Cc1ccc([N+](=O)[O-])cc1)C(=O)c1csc(Nc2ccc(Cl)cc2)n1 [Compound 42, 2-(4-chloro-phenylamino)-thiazole-4-carboxylic acid (4-nitro-benzyl)-propyl-amide] | – | 2.0 | 21.4 µM | 43 µM | – | – | –
COC[C@H](Cc1ccccc1)NC(=O)c1csc(Nc2cc(C)cc(C)c2)n1 [Compound 44, 2-(3,5-dimethyl-phenylamino)-thiazole-4-carboxylic acid (S)-(1-methoxymethyl-2-phenyl-ethyl)-amide] | – | 3.5 | 11.5 µM | 39.5 µM | – | – | –
O=C(N[C@@H]1CCC[C@H]1OCc1ccccc1)c1csc(Nc2ccc(F)cc2)n1 [Compound 37, 2-(4-fluoro-phenylamino)-thiazole-4-carboxylic acid (1R,2R)-2-(benzyloxycyclopent-1-yl) amide] | – | 3.8 | 6 µM | 23 µM | – | – | –
